Data on 13 molecules can be found in patent US6972297B2, “2-Hydroxy-mutilin carbamate derivatives for antibacterial use” (SmithKline Beecham p.l.c., priority 2000, dated 2005).

Data set [1] relates to Staphylococcus aureus Oxford. Kind of data set: conventional MIC assay, Staphylococcus aureus Oxford. The class given is cell-based. On the procedure: (§1) Compounds of the present invention were assessed for anti-bacterial activity in a conventional MIC assay against a range of pathogenic organisms.
The subject of data set [2] is Streptococcus pneumoniae 1629. The data set is described as follows: conventional MIC assay, Streptococcus pneumoniae 1629. It is filed as cell-based. On the procedure: as §1
Data set [3] deals with Moraxella catarrhalis Ravasio. The data set is described as follows: conventional MIC assay, Moraxella catarrhalis Ravasio. It is filed as cell-based. On the procedure: as §1
Data set [4] deals with Haemophilius influenzae Q1. The data set is described as follows: conventional MIC assay, Haemophilius influenzae Q1. It is filed as cell-based. On the procedure: as §1
Data set [5] is described as follows: intrinsic clearance in human liver microsome preparations. The class given is in vitro ADME. As to conditions: in the presence of human liver microsomes; R1=2-amino-4-pyridyl, R2=vinyl. On the technique in general: Microsomes from liver hold many membrane-bound enzymes, among them those of drug oxidation.

`C=C[C@]1(C)C[C@@H](OC(=O)NC(=O)c2ccc(N)nc2)[C@]2(C)C(C)CC[C@]3(C[C@H](O)C(=O)C32)[C@@H](C)[C@@H]1O` (stereo partly shown) [Example 1]: the MIC in data set [1], in data set [2], in data set [3] and in data set [4] was no more than 4 µg/mL in each case.

For the molecule `C=C[C@]1(C)C[C@@H](OC(=O)NC(=O)c2ccnc(N)c2)[C@]2(C)C(C)CC[C@]3(C[C@H](O)C(=O)C32)[C@@H](C)[C@@H]1O` (stereo partly shown) [Example 2], in data set [5], the “intrinsic clearance (CLi, a measure of rate of metabolism)” value was 6.5 ml/min/g liver.

As for `C=C[C@]1(C)C[C@@H](OC(=O)NC(=O)c2cnc(N)c([N+](=O)[O-])c2)[C@]2(C)C(C)CC[C@]3(C[C@H](O)C(=O)C32)[C@@H](C)[C@@H]1O` (stereo partly drawn) [Example 22, (6-Amino-5-nitronicotinoyl)carbamic Acid 2-(S)-hydroxymutilin 14-ester], the MIC in data set [1], in data set [2], in data set [3] and in data set [4] was no more than 4 µg/mL throughout.

On to `C=C[C@]1(C)C[C@@H](OC(=O)NC(=O)c2cc(OC)nc(N)n2)[C@]2(C)C(C)CC[C@]3(C[C@H](O)C(=O)C32)[C@@H](C)[C@@H]1O` (stereo partly drawn) [Example 23, (2-Amino-6-methoxypyrimidin-4-ylcarbonyl)carbamic Acid 2-(S)-hydroxymutilin 14-ester], for which the MIC in data set [1], in data set [2], in data set [3] and in data set [4] was no more than 4 µg/mL in each case.

For `C=C[C@]1(C)C[C@@H](OC(=O)NC(=O)c2ccc(N)nn2)[C@]2(C)C(C)CC[C@]3(C[C@H](O)C(=O)C32)[C@@H](C)[C@@H]1O.Cl` (stereo partly drawn) [Example 27, (3-Amino-6-pyridazinylcarbonyl)carbamic Acid 2-(S)-hydroxymutilin 14-ester Hydrochloride], the MIC in data set [1], in data set [2], in data set [3] and in data set [4] was no more than 4 µg/mL in each case.

Consider `C=C[C@]1(C)C[C@@H](OC(=O)NC(=O)c2csc(C3CCN(CC(N)=O)CC3)n2)[C@]2(C)C(C)CC[C@]3(C[C@H](O)C(=O)C32)[C@@H](C)[C@@H]1O` (stereo partly drawn) [Example 30, [2-(1-Carboxamidomethylpiperidin-4-yl)thiazole-4-carbonyl]carbamic Acid 2-(S)-hydroxymutilin 14-ester], for which the MIC in data set [1], in data set [2], in data set [3] and in data set [4] was no more than 4 µg/mL throughout.

Turning to `CC[C@]1(C)C[C@@H](OC(=O)NC(=O)c2cccc(N)n2)[C@]2(C)C(C)CC[C@]3(C[C@H](O)C(=O)C32)[C@@H](C)[C@@H]1O` (stereo partly drawn) [Example 32, (6-aminopyridin-2-ylcarbonyl)carbamic Acid 19,20-dihydro-2-(S)-hydroxymutilin 14-ester], the MIC in data set [1], in data set [2], in data set [3] and in data set [4] was no more than 4 µg/mL in each case.

`CC[C@]1(C)CC(OC(=O)NC(=O)c2cnc3[nH]c(=O)cnc3c2)[C@]2(C)C(C)CC[C@]3(C[C@H](O)C(=O)C23)[C@@H](C)[C@@H]1O` (stereo partly drawn) [Example 34, (3-Oxo-3,4-dihydropyrido[2,3-b]pyrazin-7-ylcarbonyl)carbamic Acid 19,20-dihydro-2-(S)-hydroxymutilin 14-ester]: the MIC in data set [1], in data set [2], in data set [3] and in data set [4] was no more than 4 µg/mL each time.

With `CC[C@]1(C)CC(OC(=O)NC(=O)c2cnc(N)s2)[C@]2(C)C(C)CC[C@]3(C[C@H](O)C(=O)C23)[C@@H](C)[C@@H]1O` (stereo partly drawn) [Example 35, (2-Aminothiazol-5-ylcarbonyl)carbamic Acid 19,20-dihydro-2-(S)-hydroxymutilin 14-ester], the MIC in data set [1], in data set [2], in data set [3] and in data set [4] was no more than 4 µg/mL each time.

With `CC[C@]1(C)CC(OC(=O)NC(=O)c2cnc(OC)c(N)c2)[C@]2(C)C(C)CC[C@]3(C[C@H](O)C(=O)C23)[C@@H](C)[C@@H]1O` (stereo partly drawn) [Example 36, (5-Amino-6-methoxynicotinoyl)carbamic Acid 19,20-dihydro-2-(S)-hydroxymutilin 14-ester], the MIC in data set [1], in data set [2], in data set [3] and in data set [4] was no more than 4 µg/mL throughout.

For the molecule `CC[C@]1(C)CC(OC(=O)NC(=O)c2cnc(NC)nc2)[C@]2(C)C(C)CC[C@]3(C[C@H](O)C(=O)C23)[C@@H](C)[C@@H]1O` (stereo partly drawn) [Example 37, (2-Methylaminopyrimidin-5-ylcarbonyl)carbamic Acid 19,20-dihydro-2-(S)-hydroxymutilin 14-ester], the MIC in data set [1], in data set [2], in data set [3] and in data set [4] was no more than 4 µg/mL each time.

In the case of `CC[C@]1(C)CC(OC(=O)NC(=O)c2cnc(OC)nc2)[C@]2(C)C(C)CC[C@]3(C[C@H](O)C(=O)C23)[C@@H](C)[C@@H]1O` (stereo partly drawn) [Example 38, (2-Methoxypyrimidin-5-ylcarbonyl)carbamic Acid 19,20-dihydro-2-(S)-hydroxymutilin 14-ester], the MIC in data set [1], in data set [2], in data set [3] and in data set [4] was no more than 4 µg/mL in each case.

As for `CC[C@]1(C)CC(OC(=O)NC(=O)c2ccc(N)nc2)[C@]2(C)C(C)CC[C@]3(C[C@H](O)C(=O)C23)[C@@H](C)[C@@H]1O` (stereo partly drawn) [Example 39, (6-Aminonicotinoyl)carbamic Acid 19,20-dihydro-2-(S)-hydroxymutilin 14-ester], the MIC in data set [1], in data set [2], in data set [3] and in data set [4] was no more than 4 µg/mL in each case.
